“Also recorded” adds a separate entry of the source.
Experiments:
Assay type in all cases: in vivo, rat
[1] = test system: ovariectomized female rats; assay: CGRP-induced hot flash response (skin temperature) in ovariectomized rats
Source text: (§1) The animals arrived at approximately 60 days of age, and were placed on specific diets throughout the study (to approximately 160 days of age). The diets were formulated and provided by Dyets Inc. (Bethlehem, Pa.) and are based on a modified AIN-93G diet. These diets were fed ad libitum. Two weeks after arrival, at approximately […] of age, the animals were ovariectomized, allowed to recover for three weeks, and then placed on defined diets. In the first study, these diets contained 0, 0.08, 0.48, 3.2, 18.5, 185, or 3700 μg/kg/day of NMS dihydrochloride (FIG. 2). In the second, follow-up study, the diets contained no NMS (control), NMS oxalate (18.5 or 55.5 μg/kg/d), or milled Zanthoxylum seed in quantities that supplied NMS-glucoside at equivalent doses (18.5 or 55.5 μg/kg/d; FIG. 8). The NMS and NMS-glucoside content was verified using liquid chromatography with mass spectrometric etection. Extraction methods were similar to those of Yanase et al., 2010.
(§2) All diets were fed for 2 weeks prior to the first behavioral assessment (open field). Positive control animals received a 5.0 mm subcutaneous silastic capsule implant packed with a crystalline 17β-estradiol and cholesterol mixture (25%, 0.058 inch inner diameter, 0.077 inch outer diameter; Dow Corning #508-006). Animals were then examined for locomotor activity (open field) and in two behavioral assays to assess mood (elevated plus maze and swim test) separated by two weeks in-between each assay. Two weeks after the final behavioral task (swim test), the animals were anesthetized and their physiological response to an experimentally-induced hot flash was tested. After the temperature monitoring was complete, tissue was harvested while the animals were still anesthetized.
Two weeks after arrival, each animal was anesthetized via isoflurane inhalation and the dorsal mid-lumbar area was shaved and swabbed with surgical scrub, iodine and alcohol. The animal was then placed on a warm heat pad covered by a sterile cloth/pad in ventral recumbency with tail towards surgeon. A 2-3 cm dorsal midline skin incision was made halfway between the caudal edge of the ribcage and the base of the tail. A single transverse incision of 5.5-10 mm long was made into the muscle wall on both the right and left sides approximately ⅓ of the distance between the spinal cord and the ventral midline. The ovary and the oviduct were exteriorized through the muscle wall. A hemostat was clamped around the uterine vasculature between the oviduct and uterus and the uterine vasculature was ligated with dissolvable suture. Each ovary and part of the oviduct was removed with single cuts through the oviducts near the ovary. The hemostat was removed, and the remaining tissue replaced into the peritoneal cavity. The ovary on the other side was removed in a similar manner. The muscle incision is not sutured. Sterile wound clips were used to close the skin incision. Animals were monitored daily for signs of infection or morbidity.
Animals were anesthetized with intraperitoneal co-injection of urethane (750 mg/kg) and α-chloralose (60 mg/kg). […] Thermistor probes (ADI Instruments, Colorado Springs, Colo.) were taped to the plantar surfaces of one hind foot. Forty minutes later, after anesthesia-induced hypothermia had stabilized, the basal skin temperature was recorded. Temperature monitoring then occurred at 5-second intervals throughout the remainder of the experiment. Calcitonin gene related peptide (CGRP; 10 μg/kg, i.v.) dissolved in saline was then injected via the tail vein. A maximum of eight animals were tested at the same time due to limitations on instrumental throughput. Cage mates were always tested together in order to avoid the stresses of single-housing and the potential stress hormone effects on body temperature. Therefore only four groups could be tested within any one given day.

plasma estradiol = assay: Circulating (plasma) estradiol levels in ovariectomized female rats; settings: for plasma estradiol: first study, FIG. 5, dietary NMS supplementation, estradiol supplemented animals
Source text: as §1, §2

[2] = Body weight of ovariectomized female rats; settings: for body weight: FIG. 6A, dietary NMS vs control diet, estradiol implanted, throughout the experiment
Source text: as §1, §2

[3] = test system: ovariectomized female rats; assay: Uterine weight (uterotrophic effect) in ovariectomized female rats; settings: vs ovariectomized controls; for uterine weight: first study, FIG. 6D, after 80 days of supplementation; for uterine weight / uterine growth: follow-up study, FIG. 11A
Source text: as §1, §2

[4] = test system: ovariectomized female rats; assay: Behavioral measures of mood (open field, elevated plus maze, swim test)
Source text: as §2, with “After the temperature monitoring was complete, tissue was harvested while the animals were still anesthetized.” left out
Animals were tested in the open field to measure overall locomotor activity and basal anxiety state. […] Rats were placed in the middle of the chamber and behavior in the open field was recorded for thirty minutes with a digital camera and measured by software (AnyMaze, Stoelting Co., Inc.). The following parameters were analyzed: a) total distance traveled; b) time in center; c) center entries; and d) number of fecal boli excreted.
Animals were tested on the elevated plus maze to measure anxiety-related behavior. […] Each rat was placed in the central platform facing one of the open arms, and its behavior was recorded during a 5-min testing period with video capture software (AnyMaze). […]

[5] = test system: ovariectomized female rats; assay: Forced swim test (depressive-like behaviors); settings: first study, FIG. 7A; estradiol implanted
Procedure: Each rat was examined in the swim test for depressive-like behaviors. The test was performed over two consecutive days since it is a measure of an adaptive response to a perceived inescapable situation. The first test establishes to the animal that it is an inescapable situation, and the second test measures the animal's degree of passive coping derived from an unwillingness to maintain effort in an inescapable situation. Typical antidepressants limit the amount of passive coping (immobility) and promote the amount of active coping (swimming/climbing). On day one (0800 h to 1300 h), animals were acclimated to the test by placing them in a plexiglass cylindrical container (45 cm×20 cm) filled with 30 cm of fresh water (25° C.) for fifteen minutes, after which they were toweled dried and returned to their home cage. On day two (24 hrs later) the test was performed for a total swim time of five minutes, after which the rats were toweled dried and returned to their home cage. Both trials were recorded by a digital video camera was secured to the ceiling above the cylinders and connected to a laptop. Total time spent swimming and immobile was measured real-time by behavioral software (Anymaze, Stoelting Co.), and scored post hoc by a blinded experimenter from captured video. […]

[6] = first study, representative data FIG. 3, 0.48 ug/kg/d NMS through diet vs untreated controls
[7] = first study, dietary NMS, dose not stated, estradiol subcutaneous, no dietary NMS (positive control)
[8] = first study, dietary NMS, dose not stated, estradiol subcutaneous, no dietary NMS (positive control), CGRP 10 μg/kg i.v.
[9] = follow-up study, FIG. 9, milled Zanthoxylum seed supplying NMS-glucoside 18.5 or 55.5 μg/kg/d, NMS oxalate 18.5 or 55.5 μg/kg/d, or estradiol, vs untreated controls

Row | SMILES | basal skin temperature ([1]; first study, FIG. 3 and 4, 18.5 ug/kg/d NMS through diet vs untreated controls) | CGRP response above calculated baseline (skin temperature) [1, 6] | basal skin temperature [1, 6] | CGRP response above calculated baseline (skin temperature) ([1]; first study, representative data FIG. 3, 18.5 ug/kg/d NMS through diet vs untreated controls) | basal (baseline) skin temperature [1, 7] | CGRP-induced hot flash response [1, 8] | CGRP-induced hot flash response [1, 9] | plasma estradiol (plasma estradiol) | non-uterine estradiol secretion (plasma estradiol; results summary) | body weight ([2]; first study) | weight change as a percentage of original weight ([2]; first study, FIG. 6B and C, throughout or at the end of the study) | uterine weight [3] | uterine weight / uterine growth [3] | behavioral measures of mood ([4]; first study, FIG. 7, dietary NMS) | behavioral measures of mood / mood-related behaviors ([4]; follow-up study, FIG. 10) | body weight throughout the experiment ([2]; follow-up study, FIG. 11B, estradiol implanted vs all other groups) | time immobile during the second session of the forced swim test [5]
1 | CNCCc1c[nH]c2ccc(O)cc12 [NMS, N-methylserotonin] | lower basal temperatures; also recorded: decreased basal skin temperature | lower CGRP responses | lower basal temperatures | lower CGRP responses | reduced baseline skin temperature | blunted the CGRP-induced hot flash response | blunted the CGRP-induced hot flash response | increased plasma estradiol in a dose-dependent manner | tripled | did not alter body weight | not different between dietary treatments | did not alter uterine weight | did not alter uterine weight | did not alter behavioral measures of mood | did not alter behavioral measures of mood | – | –
2 | CNCCc1c[nH]c2ccc(O[C@@H]3O[C@H](CO)[C@@H](O)[C@H](O)[C@H]3O)cc12 [NMS-glucoside, N-methylserotonin 5-O-β-glucoside] | – | – | – | – | – | – | blunted the CGRP-induced hot flash response | – | – | – | – | – | – | – | – | – | –
3 | C[C@]12CC[C@@H]3c4ccc(O)cc4CC[C@H]3[C@@H]1CC[C@@H]2O [estradiol, 17β-estradiol, reference compound] | – | – | – | – | lowest basal temperatures | lowest responses to CGRP | blunted the CGRP-induced hot flash response | highest levels of plasma estradiol | – | significantly lower body weight | – | significantly higher uterine weights | significantly higher uterine weights | – | – | significantly lower body weight | spent less time immobile

From US20150320783A1, “N-METHY[…] RELATED SUBSTANCES FOR USE IN TREATING / LESSENING THE OCCURRENCE OF HOT FLASHES RELATED TO MENOPAUSE” (DSM IP ASSETS B.V., priority 2013, published 2015)
